Data from the NIST ThermoML archive (doi:10.1021/je900888e).

Assay: mn = molality of the nth substance listed, in mol/kg
Settings: 101 kPa, Liquid; for speed of sound: Pulse-echo method

CCCC[P+](CCCC)(CCCC)CCCC.[Br-] [tetrabutylphosphonium bromide] + CC#N
Settings | mass density, 288.15 K [kg/m3] | mass density, 293.15 K [kg/m3] | mass density, 298.15 K [kg/m3] | mass density, 303.15 K [kg/m3] | mass density, 308.15 K [kg/m3] | mass density, 313.15 K [kg/m3] | mass density, 323.15 K [kg/m3] | speed of sound, 298.15 K [m/s]
m1 = 0.007874 | 787.927 | 782.552 | 777.157 | 771.738 | 766.288 | 760.805 | 749.733 | –
m1 = 0.01066 | 788.155 | 782.783 | 777.389 | 771.974 | 766.524 | 761.045 | 749.978 | –
m1 = 0.01465 | 788.477 | 783.109 | 777.721 | 772.308 | 766.862 | 761.385 | 750.325 | –
m1 = 0.01965 | 788.885 | 783.521 | 778.136 | 772.724 | 767.283 | 761.811 | 750.761 | –
m1 = 0.02448 | 789.275 | 783.912 | 778.532 | 773.125 | 767.689 | 762.22 | 751.178 | –
m1 = 0.0297 | 789.7 | 784.34 | 778.965 | 773.559 | 768.128 | 762.662 | 751.631 | –
m1 = 0.03509 | 790.132 | 784.784 | 779.405 | 774.005 | 768.58 | 763.119 | 752.095 | –
m1 = 0.03974 | 790.506 | 785.156 | 779.78 | 774.389 | 768.965 | 763.508 | 752.488 | 1280.1
m1 = 0.04929 | 791.273 | 785.93 | 780.567 | 775.178 | 769.76 | 764.31 | 753.307 | 1280.5
m1 = 0.06938 | 792.879 | 787.551 | 782.208 | 776.834 | 771.429 | 765.995 | 755.023 | 1281.4
m1 = 0.08849 | 794.411 | 789.095 | 783.76 | 778.399 | 773.011 | 767.591 | 756.649 | 1282.2
m1 = 0.1056 | 795.783 | 790.48 | 785.156 | 779.812 | 774.43 | 769.023 | 758.107 | –
m1 = 0.1224 | 797.155 | 791.858 | 786.545 | 781.208 | 775.841 | 770.445 | 759.553 | –
m1 = 0.1338 | 798.088 | 792.8 | 787.494 | 782.156 | 776.78 | 771.4 | 760.532 | 1284.1
m1 = 0.1414 | 798.688 | 793.405 | 788.102 | 782.773 | 777.428 | 772.045 | 761.174 | –
m1 = 0.1504 | 799.412 | 794.136 | 788.839 | 783.514 | 778.17 | 772.795 | 761.945 | –
m1 = 0.1671 | 800.758 | 795.492 | 790.206 | 784.9 | 779.563 | 774.2 | 763.372 | 1285.6
m1 = 0.1811 | 801.879 | 796.621 | 791.346 | 786.047 | 780.72 | 775.365 | 764.561 | –
m1 = 0.1987 | 803.297 | 798.049 | 792.784 | 787.498 | 782.184 | 776.843 | 766.064 | 1287
m1 = 0.2296 | 805.781 | 800.553 | 795.309 | 790.042 | 784.751 | 779.433 | 768.697 | 1288.3
m1 = 0.2599 | 808.22 | 803.012 | 797.78 | 792.541 | 787.27 | 781.973 | 771.277 | 1289.5
m1 = 0.2925 | 810.865 | 805.677 | 800.473 | 795.247 | 789.997 | 784.72 | 774.075 | 1290.8
m1 = 0.3259 | 813.591 | 808.424 | 803.241 | 798.038 | 792.811 | 787.558 | 776.962 | 1292.2

CCCC[P+](CCCC)(CCCC)CCCC.[Br-] [tetrabutylphosphonium bromide] + CCCO
Settings | mass density, 288.15 K [kg/m3] | mass density, 293.15 K [kg/m3] | mass density, 298.15 K [kg/m3] | mass density, 303.15 K [kg/m3] | mass density, 308.15 K [kg/m3] | mass density, 313.15 K [kg/m3] | mass density, 323.15 K [kg/m3] | speed of sound, 298.15 K [m/s]
m1 = 0.008229 | 808.063 | 804.08 | 800.075 | 796.04 | 791.98 | 787.867 | 779.506 | –
m1 = 0.01006 | 808.2 | 804.217 | 800.212 | 796.179 | 792.12 | 788.009 | 779.649 | 1205.6
m1 = 0.01526 | 808.58 | 804.599 | 800.599 | 796.569 | 792.51 | 788.405 | 780.051 | –
m1 = 0.02043 | 808.96 | 804.977 | 800.981 | 796.957 | 792.896 | 788.788 | 780.443 | –
m1 = 0.02524 | 809.318 | 805.33 | 801.34 | 797.315 | 793.259 | 789.158 | 780.808 | 1206.6
m1 = 0.03024 | 809.68 | 805.698 | 801.705 | 797.688 | 793.626 | 789.53 | 781.191 | –
m1 = 0.03749 | 810.212 | 806.23 | 802.24 | 798.225 | 794.174 | 790.075 | 781.741 | –
m1 = 0.05294 | 811.322 | 807.354 | 803.369 | 799.354 | 795.307 | 791.221 | 782.905 | 1208.6
m1 = 0.06813 | 812.403 | 808.443 | 804.463 | 800.458 | 796.411 | 792.34 | 784.043 | 1209.5
m1 = 0.0867 | 813.75 | 809.793 | 805.818 | 801.819 | 797.792 | 793.72 | 785.44 | 1210.8
m1 = 0.1076 | 815.247 | 811.298 | 807.331 | 803.338 | 799.313 | 795.248 | 786.995 | 1212.2
m1 = 0.1375 | 817.423 | 813.485 | 809.531 | 805.541 | 801.524 | 797.479 | 789.244 | 1213.9
m1 = 0.1743 | 820.087 | 816.159 | 812.214 | 808.243 | 804.242 | 800.208 | 792.006 | 1216.2
m1 = 0.2115 | 822.781 | 818.864 | 814.928 | 810.97 | 806.982 | 802.96 | 794.787 | 1218.4
m1 = 0.2447 | 825.209 | 821.3 | 817.377 | 813.431 | 809.45 | 805.445 | 797.302 | 1220.7
m1 = 0.2873 | 828.335 | 824.437 | 820.523 | 816.588 | 812.63 | 808.638 | 800.526 | 1223.5
m1 = 0.3248 | 831.089 | 827.205 | 823.305 | 819.382 | 815.432 | 811.451 | 803.369 | 1225.7

CC(C)=O [acetone] + CCCC[P+](CCCC)(CCCC)CCCC.[Br-]
m2 = 0
Settings | mass density [kg/m3]
288.15 K | 795.633
293.15 K | 789.952
298.15 K | 784.234
303.15 K | 778.47
308.15 K | 772.661
313.15 K | 766.799

CCO [ethanol] + CCCC[P+](CCCC)(CCCC)CCCC.[Br-]
m2 = 0
Settings | mass density [kg/m3]
288.15 K | 793.628
293.15 K | 789.354
298.15 K | 785.063
303.15 K | 780.745
308.15 K | 776.392
313.15 K | 772
323.15 K | 763.084
